# From US11917993B2, “Antimicrobial compositions” (LANXESS Corporation, priority 2017, dated 2024)
# Tests used:
# Assay type in all cases: cell-based
# [1] = test system: K. aerogenes (ATCC 13048) and P. aeruginosa (ATCC 9027); assay: Challenge testing in tryptic soy broth at pH 9, time points from ASTM 2574; conditions: pH 9, tryptic soy broth, up to one week
# Description: EP testing evaluates results at the 2-day, 7-day, 14-day, and 28-day marks. […] Strains of K. aerogenes (ATCC 13048) and P. aeruginosa (ATCC 9027) were utilized for this testing as they are commonly found in many products, including without limitation cosmetics and coatings. These organisms were challenged in the soy broth using the same methods described in the Challenge Testing Methodology section. The time points were selected from ASTM 2574, which is a method for evaluating antimicrobial efficacy in waterborne emulsion based paints.
# [2] = test system: A. brasiliensis, C. albicans, E. coli, P. aeruginosa, S. aureus; assay: Microbe challenge testing (USP 51 / EP) in tryptic soy broth growth media; conditions: for effectiveness against microbe strains compared to no antimicrobial: 0.5 wt. %; for concentration achieving passing efficacy according to EP criteria / concentration achieving passing efficacy according to USP-51 criteria / efficacy versus bacteria, yeast and mold: tryptic soy broth; for efficacy versus bacteria, yeast and mold: 30 minutes to 28 days
# Description: (§1) One skilled in the art would be able to determine and utilize other industry testing methods useful to evaluate the efficacy of the present inventive compositions.
# (§2) EP testing evaluates results at the 2-day, 7-day, 14-day, and 28-day marks.
# (§3) For the European Pharmacopeia, a “pass” test for efficacy is a two-log reduction for bacteria after two days, three-log reduction for bacteria after […], two-log reduction for mold and yeast at 14 days and no increase at 28 days.
# As such, it is an exceptional test medium and surrogate for evaluating antimicrobial efficacy, particularly for water-based or aqueous applications, although its value is not limited as such.
# Product use applications involve a variety of pH conditions. […] In addition, antimicrobial compositions were added in amounts reflecting the wt. % used in an end use product, based on the total weight of all of the components of the end use product.
# The efficacy of 3-phenyl propanol in tryptic soy broth growth media at pH 6.5 versus a number of microbes was evaluated according to methods described in the Challenge Testing Methodology section, above.
# The efficacy of 3-phenyl propanol in tryptic soy broth growth media at pH 8.0 versus a number of microbes was evaluated according to methods described in the Challenge Testing Methodology section above.
# [3] = test system: A. brasiliensis, C. albicans, E. coli, P. aeruginosa, S. aureus; assay: Microbe challenge testing (USP 51 / EP) in model skin lotion of Table 1
# Description: as §1, §2, §3
# Skin Lotion Formulation Experimental—An exemplary, model skin lotion having a pH of 6.5 as set forth below in Table 1 was prepared for testing. The invention is not limited to use in this specific lotion but was used to illustrate the advantages of the invention.
# Use of 3-phenyl propanol in the skin lotion formulation as set forth in Table 1 above was evaluated according to methods described in the Challenge Testing Methodology section above. In this efficacy screen study reflected in FIGS. 18 and 19, only the time intervals at 2-day and 14-day were measured, as these are critical time points for USP-51 and European Pharmacopeia. In this example, a triblend or tri-component antimicrobial composition was used comprising 3-phenyl propanol added to the model skin lotion containing both sodium benzoate and benzyl alcohol to enhance the antimicrobial activity at pH 6.5, a common pH for skin lotions.
# (§4) In FIG. 21 and FIG. 22, use of 3-phenyl propanol in the skin lotion set forth in Table 1 above was evaluated according to methods described in the Challenge Testing Methodology section using the microbes identified in Example 1. In this example, 3-phenyl propanol was added to the model skin lotion with sodium benzoate at 0.5 wt. % to enhance the antimicrobial activity at pH 6.5. In these examples, 0.5 wt. % of 3-phenyl propanol in addition to 0.5 wt. % sodium benzoate was required to pass the EP 2 day and 14-day criteria.
# as §4, with “23” for “21”, “24,” for “22,”, “section above,” for “section”, “benzyl alcohol” for “sodium benzoate”, “8.0.” for “6.5.”
# Use of sodium benzoate and benzyl alcohol at pH 6.5 in the skin lotion set forth in Table 1 above was evaluated according to methods described in paragraphs the Challenge Testing Methodology section above, using the microbes identified in Example 1. Again, in this case, only 2-day and 14-day time points were measured.
compound,measurement,setting,value
"OCc1ccccc1 [benzyl alcohol, reference compound]",antimicrobial effectiveness over time,[1]; 2.5 wt. %,unexpected antimicrobial effectiveness
CC(CO)Cc1ccccc1 (stereo not drawn) [2-methyl-3-phenyl propanol],antimicrobial effectiveness over time,[1]; 0.5 wt. %,unexpected antimicrobial effectiveness
OCCCc1ccccc1 [3-phenyl propanol],effectiveness against microbe strains compared to no antimicrobial,"[2]; pH 3, tryptic soy broth, up to 28 days",demonstrated the effectiveness
same,effectiveness against microbe strains compared to no antimicrobial,"[2]; pH 10, tryptic soy broth",demonstrated the effectiveness
same,concentration achieving passing efficacy according to EP criteria,[2]; pH 6.5,1 wt. %
same,concentration achieving passing efficacy according to USP-51 criteria,[2]; pH 6.5,0.5 wt. %
same,"efficacy versus bacteria, yeast and mold","[2]; pH 6.5, various concentrations","efficacious versus bacteria, yeast and mold"
same,concentration achieving passing efficacy according to EP criteria,[2]; pH 8.0,1 wt. %
same,concentration achieving passing efficacy according to USP-51 criteria,[2]; pH 8.0,0.25 wt. %
same,"efficacy versus bacteria, yeast and mold","[2]; pH 8.0, various concentrations","efficacious versus bacteria, yeast and mold"
same,addition of 3-phenyl propanol meeting the two-day criteria of the European Pharmacopeia,[3]; skin lotion pH 6.5 with 0.25 wt. % sodium benzoate and 0.25 wt. % benzyl alcohol,0.35 wt. %
same,effect of small concentrations on performance against E. coli and S. aureus versus control (0 wt. %),"[3]; skin lotion pH 6.5 with 0.25 wt. % sodium benzoate and 0.25 wt. % benzyl alcohol, after 14 days",significantly decreased performance
same,loading of 3-phenyl propanol achieving the required 14-day efficacy under European Pharmacopeia criteria,"[3]; skin lotion pH 6.5 with 0.25 wt. % sodium benzoate and 0.25 wt. % benzyl alcohol, bacteria, mold and yeast",approximately 0.35 wt. %
same,3-phenyl propanol required to pass the EP 2 day and 14-day criteria,[3]; skin lotion pH 6.5 with 0.5 wt. % sodium benzoate,0.5 wt. %
same,3-phenyl propanol required to pass the EP 2 day and 14-day criteria,[3]; skin lotion pH 8.0 with 0.5 wt. % benzyl alcohol,0.5 wt. %
